Reference: patent publication US20250090820A1, “LOCALIZED DRUG DELIVERY TO PREVENT VASCULAR RESTENOSIS” (Ohio State Innovation Foundation, priority 2022, published 2025)

Test: Release of model compounds from sintered electrospun PCL fiber capsules
Format: physicochemical
Conditions: for ranking of release of model compounds: controlled by molecular weight and available porosity
Text: Electrospinning has been used widely for drug delivery due to its versatility and ease of modification of fiber properties. However, total drug loading and release is typically limited by the inherent surface area. Instead a sintering of electrospun fiber to create injectable capsules favoring controlled delivery of low molecular weight compounds was used. As electrospun, the fully resorbable, biocompatible polymer polycaprolactone (PCL) retains its morphology out to 1,042 days of in vitro exposure, illustrating its potential for extended performance. Sintering decreases the pore size by 10- and 28-fold following 56 and 57° C. exposures, respectively. After the 58 and 59° C. exposures, these PCL capsules lose all apparent surface porosity but entrapped pores are observed in the 58° C. cross-section. […] The model drug adsorption on the available surface area (57 versus 56° C.) and entrapped porosity (59 versus 58° C.) could have also attributed to the observed ranking of release rates.
FIGS. 5A-5H show images of microstructural transformations at different temperatures (56° C. to 59° C.). […] Little difference between 56° C. and 57° C. sintering and unsintered fiber˜100% release. […] At 58° C. and 59° C. release is flipped: faster release at lower porosity. RhB is a relatively small molecule. Intermittent adsorption to surface of remaining porosity greatly slows release. […] No condition achieves˜100% release out to 12 days. […] At 58° C. and 59° C. release are still flipped but not as dramatic: faster release at lower porosity. Intermittent adsorption to surface of remaining porosity continues to slow release but increased molecular weight decreases net differences in diffusion. […] Much larger molecule needs fully open porosity for any release to occur. […] Diffusion through dense PCL is zero. […] FIGS. 11A-11B show relatively little porosity remains. This makes a substantial difference in diffusion and surface controlled release. Sequestration within the wall. FIGS. 12A-12D and 13A-13F show controlled salt confinement for controlled porosity using HEPES salt. […] Extraction was performed using deionized water at 37° C. for 24 hours plus gentle shaking. In most cases extraction was nearly complete. It is likely that Na^+ was retained and has measurable effects on mechanical properties.

| Compound | percent RB release of 200 μg (any sintering condition, out to 12 days) | RB release profile (capsules sintered at 58° C. and 59° C.) | ranking of release of model compounds | percent RhB release of 200 μg (56° C. and 57° C. sintering and unsintered fiber) | RhB release profile (capsules sintered at 58° C.) | Diffusion through dense PCL (dense PCL wall) | BSA-FITC release profile (release of 200 μg versus time, needs fully open porosity) |
| --- | --- | --- | --- | --- | --- | --- | --- |
| O=C1OC2(c3cc(I)c(O)c(I)c3Oc3c2cc(I)c(O)c3I)c2c(Cl)c(Cl)c(Cl)c(Cl)c21 [RB, Rose Bengal] | < 100% | linear release out to 12 days | RhB>RB>>BSA-FITC | – | – | – | – |
| CCN(CC)c1ccc2c(-c3ccccc3C(=O)O)c3ccc(=[N+](CC)CC)cc-3oc2c1.[Cl-] [RhB, Rhodamine B] | – | – | RhB>RB>>BSA-FITC | ~100% | linear release out to 12 days | – | – |
| albumin-fluorescein isothiocyanate conjugate from bovine serum [BSA-FITC] | – | – | RhB>RB>>BSA-FITC | – | – | zero | Release plateaus quickly |
